Assay results as given in patent US20170348231A1, “COMPOSITION AND METHOD FOR BUCCAL ADMINISTRATION OF GnRH AGONISTS” (NHTherapeutics INC, priority 2016, published 2017).

How the values were obtained:
male beagle dogs = assay: Oromucosal (buccal) spray in male beagle dogs, testosterone response; type: in vivo; conditions: 0.5 mg oromucosal spray
Method: The GnRH analogue leuprorelin acetate (leuprolide acetate) which is available as an injectable, was reformulated as described in Example 3. This spray was administered to male beagle dogs at a dose of 0.5 mg suspended in 140 μl and dispensed in a single spray to the inner cheek of male beagle dogs (studies 1 and 2). In addition, formulation 2 was sprayed to the mucosae at the back of the throat in a separate study to determine if this would alter the absorption characteristics (study 3). The two formulations were administered with a one week washout period. Drug was dispensed in a single spray with a volume of 140 μl (studies 1 and 2) or three consecutive sprays (study 3). The aim of the study was to determine if leuprolide could be delivered as an oralmucosal spray and to determine the minimum exposure required to increase levels of testosterone.
The blood levels for leuprolide were monitored 15 minutes before the start of the study and at time “0” (immediately after drug administration), then at 15, 30 minutes and at 1, 2, 3 and 5 hours (postdosing; studies 1 and 2). In addition, for study 3, two additional time points were included at 5 and 10 min post dosing. […]
The study was conducted by the University Health Network in Toronto and specifically at the Toronto Western Hospital. Serum samples were analysed at Inventiv Health in Quebec City.

[1] = intranasal; cited from earlier work
[2] = test system: patient suffering from hypogonadotropic hypogonadism; conditions: intranasal, daily administration of a low dose; cited from earlier work
[3] = test system: normally menstruating females; conditions: 25 μg LH-RH each, double stimulation on three consecutive days, 12 females; cited from earlier work

CCNC(=O)[C@@H]1CCCN1C(=O)[C@H](CCCNC(=N)N)NC(=O)[C@H](CC(C)C)NC(=O)[C@@H](CC(C)C)NC(=O)[C@H](Cc1ccc(O)cc1)NC(=O)[C@H](CO)NC(=O)[C@H](Cc1c[nH]c2ccccc12)NC(=O)[C@H](Cc1c[nH]cn1)NC(=O)[C@@H]1CCC(=O)N1 [Leuprolide acetate, leuprolide acetate]
exposure levels at which the testosterone increase occurred (male beagle dogs): at least 30 pg/ml | peak testosterone increase compared to baseline (male beagle dogs; FIGS. 1a, b): ~200%

CCNC(=O)[C@@H]1CCCN1C(=O)[C@H](CCCNC(=N)N)NC(=O)[C@H](CC(C)C)NC(=O)[C@@H](COC(C)(C)C)NC(=O)[C@H](Cc1ccc(O)cc1)NC(=O)[C@H](CO)NC(=O)[C@H](Cc1c[nH]c2ccccc12)NC(=O)[C@H](Cc1cnc[nH]1)NC(=O)[C@@H]1CCC(=O)N1 [buserelin]
bioavailability [1]: 3% | testosterone [2]: chronic and sustained increase in testosterone

luteinizing hormone-releasing hormone (QHWSYGLRPG; Gonadoliberin-1; UniProt P01148 24-33, looked up) [LH-RH, Native or physiological GnRH, hormone secreted by the hypothalamus]
serum LH levels [3]: Increases in serum LH levels were found after each of the two stimulations
